Data taken from ChEMBL document CHEMBL3112492, “Antiprotozoan lead discovery by aligning dry and wet screening: prediction, synthesis, and biological assay of novel quinoxalinones” (Bioorg Med Chem, 2014).
Converted amounts (≈) assume the structure as drawn. The source made the active and inactive calls. No cut-off for these calls is given here.

What was measured:
Trichomonas vaginalis [1] = assay: Trichomonacidal activity against Trichomonas vaginalis JH31A at 0.5 ug/ml after 24 hrs by Neubauer chamber analysis relative to control; type: functional
Trichomonas vaginalis [2] = assay: Trichomonacidal activity against Trichomonas vaginalis JH31A at 1 ug/ml after 24 hrs by Neubauer chamber analysis relative to control; type: functional
Trichomonas vaginalis [3] = assay: Trichomonacidal activity against Trichomonas vaginalis JH31A at 2 ug/ml after 48 hrs by Neubauer chamber analysis relative to control; type: functional
Trichomonas vaginalis [4] = assay: Trichomonacidal activity against Trichomonas vaginalis JH31A at 2 ug/ml after 24 hrs by Neubauer chamber analysis relative to control; type: functional
Trichomonas vaginalis [5] = assay: Trichomonacidal activity against Trichomonas vaginalis JH31A at 0.5 ug/ml after 48 hrs by Neubauer chamber analysis relative to control; type: functional
Trichomonas vaginalis [6] = assay: Trichomonacidal activity against Trichomonas vaginalis JH31A at 1 ug/ml after 48 hrs by Neubauer chamber analysis relative to control; type: functional
Trypanosoma cruzi [7] = assay: Trypanocidal activity against epimastigote stage of Trypanosoma cruzi CL Brener at 1 ug/mL after 72 hrs by beta-galactosidase reporter gene assay relative to control; type: functional
Trichomonas vaginalis [8] = assay: Trichomonacidal activity against Trichomonas vaginalis JH31A at 10 ug/ml after 24 hrs by Neubauer chamber analysis relative to control; type: functional
Toxoplasma gondii [9] = assay: Antiprotozoal activity against tachyzoite stage of Toxoplasma gondii RH assessed as viability at 1 mM after 4 hrs by trypan blue exclusion assay relative to control; type: functional
Trichomonas vaginalis [10] = assay: Trichomonacidal activity against Trichomonas vaginalis JH31A at 100 ug/ml after 48 hrs by Neubauer chamber analysis relative to control; type: functional
Trypanosoma cruzi [11] = assay: Trypanocidal activity against epimastigote stage of Trypanosoma cruzi CL Brener at 100 ug/mL after 72 hrs by beta-galactosidase reporter gene assay relative to control; type: functional
Toxoplasma gondii [12] = assay: Antiprotozoal activity against tachyzoite stage of Toxoplasma gondii RH assessed as viability at 100 uM after 4 hrs by trypan blue exclusion assay relative to control; type: functional
Toxoplasma gondii [13] = assay: Antiprotozoal activity against tachyzoite stage of Toxoplasma gondii RH assessed as viability at 500 uM after 4 hrs by trypan blue exclusion assay relative to control; type: functional
J774 [14] = assay: Cytotoxicity against mouse J774 cells at 100 ug/mL after 24 hrs by MTT assay; type: cell-based; conditions: j774, 24 h
Trichomonas vaginalis [15] = assay: Trichomonacidal activity against Trichomonas vaginalis JH31A at 100 ug/ml after 24 hrs by Neubauer chamber analysis relative to control; type: functional
Trichomonas vaginalis [16] = assay: Trichomonastatic activity against Trichomonas vaginalis JH31A at 1 ug/ml after 24 hrs by Neubauer chamber analysis relative to control; type: functional
Trichomonas vaginalis [17] = assay: Trichomonastatic activity against Trichomonas vaginalis JH31A at 1 ug/ml after 48 hrs by Neubauer chamber analysis relative to control; type: functional
Toxoplasma gondii [18] = assay: Antiprotozoal activity against tachyzoite stage of Toxoplasma gondii RH assessed as extrusion of cytoplasmic content by light microscopic analysis; type: functional, organism-based
Trichomonas vaginalis [19] = assay: Trichomonastatic activity against Trichomonas vaginalis JH31A at 10 ug/ml after 48 hrs by Neubauer chamber analysis relative to control; type: functional
Trypanosoma cruzi [20] = assay: Trypanocidal activity against epimastigote stage of Trypanosoma cruzi CL Brener at 10 ug/mL after 72 hrs by beta-galactosidase reporter gene assay relative to control; type: functional
Plasmodium falciparum = assay: Antimalarial activity against intraerythrocytic asexual stage of Plasmodium falciparum 3D7 assessed as inhibition of [G-3H]-hypoxanthine uptake by semiautomated microdilution method; type: functional, organism-based
Toxoplasma gondii [21] = assay: Antiprotozoal activity against tachyzoite stage of Toxoplasma gondii RH assessed as viability at 200 uM after 4 hrs by trypan blue exclusion assay relative to control; type: functional
Leishmania braziliensis = assay: Antiprotozoal activity against metacyclic promastigote stage of Leishmania braziliensis MHOM/PE/95/LQ2 assessed as growth inhibition after 72 hrs by Alamar Blue assay; type: functional, organism-based; conditions: for IC50: MHOM/PE/95/LQ2, 72 h
Acanthamoeba castellanii = assay: Antiprotozoal activity against trophozoite stage of Acanthamoeba castellanii Neff ATCC 30010 after 72 to 120 hrs by Alamar Blue assay; type: functional; conditions: Acanthamoeba castellanii str. Neff
[22] = Inhibition of ferriprotoporphyrin-9 biocrystallization by micro-ELISA
J774 [23] = assay: Cytotoxicity against mouse J774 cells at 10 ug/mL after 24 hrs by MTT assay; type: cell-based; conditions: j774, 24 h
Trichomonas vaginalis [24] = assay: Trichomonastatic activity against Trichomonas vaginalis JH31A at 10 ug/ml after 24 hrs by Neubauer chamber analysis relative to control; type: functional
J774 [25] = assay: Cytotoxicity against mouse J774 cells at 1 ug/mL after 24 hrs by MTT assay; type: cell-based; conditions: j774, 24 h
Trichomonas vaginalis [26] = assay: Trichomonastatic activity against Trichomonas vaginalis JH31A at 100 ug/ml after 48 hrs by Neubauer chamber analysis relative to control; type: functional
Trichomonas vaginalis [27] = assay: Trichomonastatic activity against Trichomonas vaginalis JH31A at 100 ug/ml after 24 hrs by Neubauer chamber analysis relative to control; type: functional

IC50 (Plasmodium falciparum) [µg/mL] | IC50 [22] [µg/mL] | SMILES | Activity (Trypanosoma cruzi [7]) [%] | Activity (Toxoplasma gondii [9]) [%] | Activity (Trichomonas vaginalis [10]) [%] | Activity (Trypanosoma cruzi [11]) [%] | Activity (Toxoplasma gondii [12]) [%] | Activity (Toxoplasma gondii [13]) [%] | Activity (J774 [14]) [%] | Activity (Trichomonas vaginalis [15]) [%] | Activity (Trichomonas vaginalis [16]) [%] | Activity (Trichomonas vaginalis [17]) [%] | Activity (Trichomonas vaginalis [19]) [%] | Activity (Trypanosoma cruzi [20]) [%] | Activity (Toxoplasma gondii [21]) [%] | growth inhibition (GI) (Leishmania braziliensis) | IC50 (Leishmania braziliensis) [µg/mL] | Activity (Acanthamoeba castellanii) | Activity (J774 [23]) [%] | Activity (Trichomonas vaginalis [24]) [%] | also measured
 |  | Cc1ncc([N+](=O)[O-])n1CCO [METRONIDAZOLE] |  |  |  |  |  |  |  |  |  |  |  |  |  |  |  |  |  |  | Activity (Trichomonas vaginalis [1]): 98%; Activity (Trichomonas vaginalis [2]): 99.1%; Activity (Trichomonas vaginalis [3]): 100%; Activity (Trichomonas vaginalis [4]): 100%; Activity (Trichomonas vaginalis [5]): 99.5%; Activity (Trichomonas vaginalis [6]): 100%
> 10 | 1950 | Br.CN1C(=O)CN(CCCCCN2CCCCCC2)c2ccc([N+](=O)[O-])cc21 | 0 | 0 | 100 | 65.46 | 81 | 71 | 75.75 | 100 | 10.98 | 2.87 | 70.41 | 15.38 | 77 | Dose-dependent effect | 5.3 | inactive | 20.24 |  | Activity (Trichomonas vaginalis [8]): 91.61%; Activity (Toxoplasma gondii [18]): Active
5.72 | > 2000 | Br.O=C1CN(CCCCCN2CCCCCC2)c2ccc([N+](=O)[O-])cc2N1 | 8.35 | 0 | 100 | 97.73 | 88 | 0 | 59.14 | 100 | 2.35 | 0 | 0 | 23.84 | 82 | Dose-dependent effect | 39.3 | inactive | 5.78 | 12.94 | Activity (Toxoplasma gondii [18]): Active; Activity (J774 [25]): 0%
> 10 | > 2000 | Br.O=C1CN(CCCCCN2CCCCC2)c2ccc([N+](=O)[O-])cc2N1 | 1.78 | 0 | 100 | 82.4 | 92 | 0 | 3.36 | 99.37 | 0 | 0 | 5.74 | 17.68 | 68 | Dose-dependent effect | 64.6 | inactive | 0 | 20.94 | Activity (Toxoplasma gondii [18]): Active; Activity (J774 [25]): 0%
> 10 | > 2000 | Br.CN1C(=O)CN(CCCCCN2CCCC2)c2ccc([N+](=O)[O-])cc21 | 0 | 38 | 100 | 6.36 | 89 | 58 | 49.25 | 100 | 0 | 4.1 | 67.7 | 2.51 | 84 | Dose-dependent effect | 5.3 | inactive | 0 |  | Activity (Trichomonas vaginalis [8]): 89.25%; Activity (J774 [25]): 0%
> 10 | > 2000 | Br.CN(C)CCCCCN1CC(=O)N(C)c2cc([N+](=O)[O-])ccc21 |  | 81 | 100 |  | 81 | 93 |  | 100 | 8.98 | 0 | 11.26 |  | 90 | Dose-dependent effect | 8.15 | inactive |  | 45.71 | 
> 10 | > 2000 | Br.CN(C)CCCCCN1CC(=O)Nc2cc([N+](=O)[O-])ccc21 |  | 73 |  |  | 95 | 93 |  |  | 1.22 | 0 | 14.68 |  | 96 | inactive |  | inactive |  | 11.43 | Activity (Trichomonas vaginalis [26]): 28.33%; Activity (Trichomonas vaginalis [27]): 29.39%
> 10 | > 2000 | Br.CN1C(=O)CN(CCCCCN2CCCCC2)c2ccc([N+](=O)[O-])cc21 | 7.93 | 36 | 100 | 79.12 | 96 | 40 | 61.38 | 100 | 0 | 0 | 86.52 | 60.68 | 90 | Dose-dependent effect | 9.57 | inactive | 11.57 |  | Activity (Trichomonas vaginalis [8]): 92.63%
> 10 | > 2000 | Br.O=C1CN(CCCCCN2CCCC2)c2ccc([N+](=O)[O-])cc2N1 | 4.38 | 0 |  | 83.54 | 91 | 0 | 0 |  | 3.53 | 0 | 1.64 | 5.35 | 85 | inactive |  | inactive | 0 | 21.02 | Activity (Trichomonas vaginalis [26]): 34.26%; Activity (Toxoplasma gondii [18]): Active; Activity (Trichomonas vaginalis [27]): 75.61%; Activity (J774 [25]): 0%
 |  | CC1CS(=O)(=O)CCN1/N=C/c1ccc([N+](=O)[O-])o1 (stereo unspecified) [NIFURTIMOX] | 75.5 |  |  | 98.73 |  |  | 25.9 |  |  |  |  | 90 |  |  |  |  | 0.6 |  | Activity (J774 [25]): 0%
> 10 | 1530 | Br.O=C1CN(CCCCCN2CCc3ccccc3C2)c2ccc([N+](=O)[O-])cc2N1 | 12.49 |  | 100 | 87.83 |  |  | 100 | 100 | 3.53 | 0 | 44.06 | 56.77 |  | Dose-dependent effect | 31.3 | inactive | 13.25 | 83.76 | Activity (J774 [25]): 9.89%
 | 40 (≈ 125 µM) | CCN(CC)CCCC(C)Nc1ccnc2cc(Cl)ccc12 (stereo unspecified) [CHLOROQUINE] |  |  |  |  |  |  |  |  |  |  |  |  |  |  |  |  |  |  | 
6.47 | 950 | Br.CN1C(=O)CN(CCCCCN2CCc3ccccc3C2)c2ccc([N+](=O)[O-])cc21 | 11.77 |  | 100 | 19.78 |  |  | 99.44 | 100 | 4.71 | 4.1 | 23.28 | 15.62 |  | inactive |  | inactive | 24.44 | 70.98 | 
